Data: ChEMBL document CHEMBL1125122, “Antibacterials. Synthesis and structure-activity studies of 3-aryl-2-oxooxazolidines. 2. The "A" group” (1990)
Converted amounts (≈) assume the structure as drawn.

How the values were obtained:
Enterococcus faecalis = assay: In vitro for antibacterial activity against Enterococcus faecalis strain STCO-19; assay type: functional
Staphylococcus aureus = assay: In vitro for antibacterial activity against Staphylococcus aureus strain SFCO-1a; assay type: functional

CCCCOc1ccc(N2C[C@H](CNC(C)=O)OC2=O)cc1 showed an MIC (Enterococcus faecalis) of 16 µg/mL (≈ 52.2 µM) and an MIC (Staphylococcus aureus) of 8 µg/mL (≈ 26.1 µM).

CC(=O)NC[C@H]1CN(c2ccc(C(=O)CBr)cc2)C(=O)O1 gave an MIC (Enterococcus faecalis) of 8 µg/mL (≈ 22.5 µM) and an MIC (Staphylococcus aureus) of 4 µg/mL (≈ 11.3 µM).

CC(=O)NC[C@H]1CN(c2ccc(C(=O)CF)cc2)C(=O)O1 was tested, and the MIC (Enterococcus faecalis) was 2 µg/mL (≈ 6.8 µM) and the MIC (Staphylococcus aureus) was 2 µg/mL (≈ 6.8 µM).

Work on CC(=O)NC[C@H]1CN(c2ccc(C(C)O)cc2)C(=O)O1 (some centres undefined) yielded an MIC (Enterococcus faecalis) of 4 µg/mL (≈ 14.4 µM) and an MIC (Staphylococcus aureus) of 4 µg/mL (≈ 14.4 µM).

CC(=O)NC[C@H]1CN(c2ccc(C(C)=O)cc2)C(=O)O1 [DUP-721] gave an MIC (Enterococcus faecalis) of 1 µg/mL (≈ 3.62 µM) and an MIC (Staphylococcus aureus) of 0.5 µg/mL (≈ 1.81 µM).

Work on CC(=O)NC[C@H]1CN(c2ccc(C(F)(F)C(F)(F)F)cc2)C(=O)O1 yielded an MIC (Enterococcus faecalis) of 2 µg/mL (≈ 5.68 µM) and an MIC (Staphylococcus aureus) of 2 µg/mL (≈ 5.68 µM).

CC(=O)NC[C@H]1CN(c2ccc(N(C)C)cc2)C(=O)O1 was tested, and the MIC (Enterococcus faecalis) was 16 µg/mL (≈ 57.7 µM) and the MIC (Staphylococcus aureus) was 16 µg/mL (≈ 57.7 µM).

With CC(=O)NCC1CN(c2ccc(Cl)cc2)C(=O)O1 (racemic) the MIC (Enterococcus faecalis) was 64 µg/mL (≈ 238 µM) and the MIC (Staphylococcus aureus) was 32 µg/mL (≈ 119 µM).

In the case of CCCc1ccc(N2C[C@H](CNC(C)=O)OC2=O)cc1, the MIC (Enterococcus faecalis) is reported as 4 µg/mL (≈ 14.5 µM) and the MIC (Staphylococcus aureus) is reported as 2 µg/mL (≈ 7.24 µM).

CC(=O)NC[C@H]1CN(c2ccc(/C(C)=N\O)cc2)C(=O)O1 gave an MIC (Enterococcus faecalis) of 2 µg/mL (≈ 6.87 µM) and an MIC (Staphylococcus aureus) of 4 µg/mL (≈ 13.7 µM).

Work on CC(=O)NC[C@H]1CN(c2ccc(C)cc2)C(=O)O1 yielded an MIC (Enterococcus faecalis) of 32 µg/mL (≈ 129 µM) and an MIC (Staphylococcus aureus) of 32 µg/mL (≈ 129 µM).

For CC(=O)NC[C@H]1CN(c2ccc(C(C)(C)O)cc2)C(=O)O1, the MIC (Enterococcus faecalis) was 4 µg/mL (≈ 13.7 µM) and the MIC (Staphylococcus aureus) was 2 µg/mL (≈ 6.84 µM).

For CC(=O)NC[C@H]1CN(c2ccc(C(=O)CCl)cc2)C(=O)O1, the MIC (Enterococcus faecalis) was 2 µg/mL (≈ 6.44 µM) and the MIC (Staphylococcus aureus) was 0.5 µg/mL (≈ 1.61 µM).

With CC(=O)NC[C@H]1CN(c2ccc(C(=O)CC#N)cc2)C(=O)O1 the MIC (Enterococcus faecalis) was 64 µg/mL (≈ 212 µM) and the MIC (Staphylococcus aureus) was 8 µg/mL (≈ 26.6 µM).

In the case of CC(=O)NC[C@H]1CN(c2ccc(SC(F)(F)F)cc2)C(=O)O1, the MIC (Enterococcus faecalis) is reported as 4 µg/mL (≈ 12 µM) and the MIC (Staphylococcus aureus) is reported as 4 µg/mL (≈ 12 µM).

In the case of CC(=O)NC[C@H]1CN(c2ccc(S(=O)(=O)CF)cc2)C(=O)O1, the MIC (Enterococcus faecalis) is reported as 1 µg/mL (≈ 3.03 µM) and the MIC (Staphylococcus aureus) is reported as 1 µg/mL (≈ 3.03 µM).

Work on CC(=O)NC[C@H]1CN(c2ccc([S+]([O-])CF)cc2)C(=O)O1 (some centres undefined) yielded an MIC (Enterococcus faecalis) of 8 µg/mL (≈ 25.5 µM) and an MIC (Staphylococcus aureus) of 8 µg/mL (≈ 25.5 µM).

Compound CC(=O)NC[C@H]1CN(c2ccc(C=O)cc2)C(=O)O1 has an MIC (Enterococcus faecalis) of 8 µg/mL (≈ 30.5 µM) and an MIC (Staphylococcus aureus) of 8 µg/mL (≈ 30.5 µM).

For CSc1ccc(N2C[C@H](CNC(C)=O)OC2=O)cc1, the MIC (Enterococcus faecalis) was 4 µg/mL (≈ 14.3 µM) and the MIC (Staphylococcus aureus) was 4 µg/mL (≈ 14.3 µM).

With CC(=O)NC[C@H]1CN(c2ccc(Sc3ccccc3)cc2)C(=O)O1 the MIC (Enterococcus faecalis) was 128 µg/mL (≈ 374 µM) and the MIC (Staphylococcus aureus) was > 128 µg/mL.

C#Cc1ccc(N2C[C@H](CNC(C)=O)OC2=O)cc1 was tested, and the MIC (Enterococcus faecalis) was 16 µg/mL (≈ 61.9 µM) and the MIC (Staphylococcus aureus) was 16 µg/mL (≈ 61.9 µM).

CC(=O)NCC(=O)c1ccc(N2C[C@H](CNC(C)=O)OC2=O)cc1 was tested, and the MIC (Enterococcus faecalis) was 16 µg/mL (≈ 48 µM) and the MIC (Staphylococcus aureus) was 8 µg/mL (≈ 24 µM).

In the case of CCS(=O)(=O)c1ccc(N2C[C@H](CNC(C)=O)OC2=O)cc1, the MIC (Enterococcus faecalis) is reported as 8 µg/mL (≈ 24.5 µM) and the MIC (Staphylococcus aureus) is reported as 8 µg/mL (≈ 24.5 µM).

Compound CCCSc1ccc(N2C[C@H](CNC(C)=O)OC2=O)cc1 has an MIC (Enterococcus faecalis) of 8 µg/mL (≈ 25.9 µM) and an MIC (Staphylococcus aureus) of 8 µg/mL (≈ 25.9 µM).

CC(=O)NC[C@H]1CN(c2ccc(C(C)(C)C)cc2)C(=O)O1 showed an MIC (Enterococcus faecalis) of 2 µg/mL (≈ 6.89 µM) and an MIC (Staphylococcus aureus) of 1 µg/mL (≈ 3.44 µM).

CC(=O)Cc1ccc(N2C[C@H](CNC(C)=O)OC2=O)cc1 showed an MIC (Enterococcus faecalis) of 8 µg/mL (≈ 27.6 µM) and an MIC (Staphylococcus aureus) of 4 µg/mL (≈ 13.8 µM).

CC(=O)NC[C@H]1CN(c2ccc(N)cc2)C(=O)O1 showed an MIC (Enterococcus faecalis) of 128 µg/mL (≈ 513 µM) and an MIC (Staphylococcus aureus) of 128 µg/mL (≈ 513 µM).

In the case of CC(=O)NC[C@H]1CN(c2ccc(C(O)C(C)C)cc2)C(=O)O1 (some centres undefined), the MIC (Enterococcus faecalis) is reported as 8 µg/mL (≈ 26.1 µM) and the MIC (Staphylococcus aureus) is reported as 4 µg/mL (≈ 13.1 µM).

CCOC(=O)c1ccc(N2CC(CNC(C)=O)OC2=O)cc1 (racemic) was tested, and the MIC (Enterococcus faecalis) was 4 µg/mL (≈ 13.1 µM) and the MIC (Staphylococcus aureus) was 4 µg/mL (≈ 13.1 µM).

Work on CCCS(=O)(=O)c1ccc(N2C[C@H](CNC(C)=O)OC2=O)cc1 yielded an MIC (Enterococcus faecalis) of 32 µg/mL (≈ 94 µM) and an MIC (Staphylococcus aureus) of 32 µg/mL (≈ 94 µM).

Compound CC(=O)NC[C@H]1CN(c2ccccc2)C(=O)O1 has an MIC (Enterococcus faecalis) of 128 µg/mL (≈ 546 µM) and an MIC (Staphylococcus aureus) of 128 µg/mL (≈ 546 µM).

CC(=O)NCC1CN(c2ccc(Oc3ccccc3)cc2)C(=O)O1 (racemic) gave an MIC (Enterococcus faecalis) of 64 µg/mL (≈ 196 µM) and an MIC (Staphylococcus aureus) of 64 µg/mL (≈ 196 µM).
